In patent US20070025960A1 (priority 2003, published 2007):

Assays:
[1] = test system: Vγ2/Vδ2 T cells
[2] = test system: Vγ2/Vδ2 T cells; remark: listed apart in the source
[3] = test system: γ/δ T cells; conditions: cited from earlier work
[4] = test system: γ/δ T cells; conditions: in vivo, iv; cited from earlier work

With NCCCC(O)(P(=O)(O)O)P(=O)(O)O [Alendronate] as the compound, how does the “total CD3+ T cells that produced IFNγ” value [1] read?
Its value is 5-10%.

What about the “subset showing intracellular IFNγ” value [2] of the same compound?
The value was “restricted to the Vγ2/Vδ2 subset”.

Which “activity for stimulating γ/δ T cells” value [3] does the source give for O=P(O)(O)C(O)(Cc1cccnc1)P(=O)(O)O [Risedronate] here?
Its value is “highly active”.

Which “change in γ/δ T cell count after drug infusion” value [4] does the source give for NCCC(O)(P(=O)(O)O)P(=O)(O)O [pamidronate, Pamidronate] here?
The value was “increase in γ/δ T cell count”.
